Assay results taken from US10695436B2, “Non-cleavable polymer conjugated with alpha V beta 3 integrin thyroid antagonists” (NANOPHARMACEUTICALS, LLC, priority 2016, dated 2020).

How the values were obtained:
[1] = Safety studies, C57BL6 mice, 14 days; assay type: in vivo
Protocol: Preclinical toxicology of a representative of the polymer conjugated thyrointegrin antagonist antiangiogenic agent of P-bi-TAT was pursued in 5-to-6 week-old C57BL6 mice, treated for 14 days with varying doses of P-bi-TAT. The treatment groups were control (vehicle), 1 mg/kg, 3 mg/kg, 10 mg/kg, 30 mg/kg, 100 mg/kg and 330 mg/kg P-bi-TAT, administered daily s.c. for 14 days. Each treatment group consisted of 5 male and 5 female animals, and animal weights were measured twice weekly. Mice terminated after 14 days and blood samples collected from the retro-orbital venous plexus. Blood samples centrifuged, and harvested plasma was stored at −80° C. until subjected to analyses described below.
Liver function was estimated by measurement in stored plasma of alanine transaminase (ALT) and aspartate transaminase (AST) activities (Colorimetric kit, Biovision, Inc., Milpitas, Calif.) the data for which is shown in FIG. 44. Cardiac troponin I (cTnI) levels in plasma were measured by an ELISA method (Life Diagnostics, West Chester, Pa.) as an index of myocardial damage (FIG. 44). It is a troponin found exclusively in the heart and not in other forms of muscle. Kidney function estimated by measurement of plasma creatinine concentration (Colorimetric kit, Biovision, Inc.) (FIG. 44). Satisfactory standard curves were constructed for each of the liver and kidney assays. […]

U87-luc cells = test: GBM (U87-luc) xenografts, orthotopic and subcutaneous, 7 days treatment; assay type: in vivo, mouse; settings: 1, 3 and 10 mg/kg, SC daily for 7 days
Protocol: Glioblastoma cells: U87-luc cells implanted orthotopically at 0.2×10^6 cell in 20 ul, in Matrigel and subcutaneously xenografted at 2×10^6 cells/implant with Matrigel in athymic female mice. Animals treated with polymers conjugated thyrointegrin antagonists, including derivatives of P-DAT 720, P-TAT 730 and bifunctional derivatives thereof for 7 days after 1 day post-implant and IVIS imaging of the brain tumor and subcutaneous tumor xenograft. […] FIGS. 38-40 depict the measurable dose-dependent effects of p-bi-TAT 1030 on brain GBM tumor and subcutaneous GBM tumor including the effect on luminescent signals of GBM in the brain, average tumor weight and bioluminescent intensity.

[2] = tested on: pancreatic cancer SUIT 2 xenografts; test: Pancreatic cancer SUIT 2 xenografts, with or without radiation; assay type: in vivo, mouse; settings: for Decrease in tumor size, combination with radiation / Decrease in cell viability, combination with radiation / Increase of necrosis, combination with radiation: vs. non-irradiated control; for Tumor weight reduction after 20 days / Increase in % cell necrosis in tissue sections / Percent reduction in tumor cell viability: no radiation
Protocol: Female NCr mice (Taconic Farms, Hudson, N.Y.) for in vivo studies obtained at 5-6 weeks of age (20 gm body weight) and maintained under specific pathogen-free conditions, and food and water provided ad libitum. The animals allowed to acclimate for 5 days. Cultured human SUIT 2 cells were harvested and implanted subcutaneously (s.c.) in each flank of the mice. Inocula comprising 100 μL, 50% Matrigel °, and containing 2×10^6 tumor cells was prepared. Tumors were grown for 7 days, at which time the animals were randomized into control and P-bi-TAT groups (6 animals/group, 12-carcinoma grafts/group). Starting on day 0, drug was administered at 3 or 10 mg of P-bi-TAT/kg body weight, daily for 20 days (to experimental day 19). Control animals received vehicle (PBS) daily. Animals were sacrificed on experimental day 20. Tumors were harvested and the weight of the tumors were measured. Tumors were formalin-fixed, imbedded in paraffin and sliced.
Effectiveness of radiation therapy, alone and in conjunction with P-bi-TAT was also assessed. The Radiation treatment was one Gy administered to right flank xenografts on days 10 and 17. Geometry of flank exposure excluded radiation exposure to the left flank of study animals, so that the left flank served as a control in the radiation studies.

[3] = tested on: U87MG glioblastoma xenografts; test: U87MG-luc glioblastoma subcutaneous xenografts in the nude mouse; assay type: in vivo
Protocol: The xenograft model of glioblastoma is a standard model for study of GBM. In the current studies, athymic, immunodeficient NCr nude mice aged 5-6 weeks and weighing 18-20 g were used. Animals were provided with ad libitum access to water and food. Animals allowed to acclimatize to the facility for 5 days prior to study. Cultured U87MG-luc cells were harvested and implanted subcutaneously (s.c.) in each flank (5×10^6 cells in 100 uL volumes containing 50% Matrigel) Tumors were grown for 2 days (to an initial volume of 150-250 mm^3) before administration of the control, C-DAT 1320, C-TAT 1330, P-TAT 730, P-bi-DAT 1020, P-bi-TAT 1030. Immediately before initiation of treatment at 2 days after implantation, animals were divided into control and treatment groups containing similar distributions of tumor volumes (calipers measurement). Polymer conjugated P-DAT 720 and P-TAT 730 (3 mg or 10 mg/kg body weight) was administered daily s.c. to two groups of animals×21 days, and vehicle (PBS, pH 8.0/0.5% ethanol) was administered daily s.c. to one group of animals as control×21 days. There were 4 animals and 8 grafts/treatment group. The control group and one group of drug-treated animals humanely sacrificed at 21 days; the second group of drug-treated mice observed off therapy for an additional 22 days to detect any tumor re-growth. The second drug-treated group thus observed for a total of 43 days. Tumors harvested and weighed, then fixed, sliced and subjected to hematoxylin and eosin (H&E) staining. Microscopic slides accommodated the full diameter of the control tumors. […]
Histologic evaluation of paraffin-embedded tissue sections were stained (hematoxylin and eosin), and each section was coded. The area of the section measured with a stage micrometer, and the percentage of viable vs. necrotic tumor, manifested by loss of cell density, dissolution of the plasma membrane and loss of nuclear structure estimated visually. The number of mitoses and apoptotic cells per high power field was counted for 5 fields of viable tumor areas and averaged per tissue section. […]

[4] = tested on: Matrigel growth factors implant-mediated angiogenesis; test: Mouse Matrigel-growth factors implant angiogenesis model (hemoglobin); assay type: in vivo; settings: 10, 30, 100 μg/10 μl; day 14
Protocol: The mouse Matrigel model was performed in accordance with institutional guidelines for animal safety and welfare. Female mice C56/BL aged 5-6 weeks and body weights of 20 g were purchased from Taconic Farms (Hudson, N.Y., USA). The animals were maintained under specific pathogen-free conditions and housed 4 animals per cage, under controlled conditions of temperature (20-24° C.) and humidity (60-70%) and a 12 h light/dark cycle. The in vivo study carried out in the animal facility of the Veterans Affairs (VA) Medical Center, Albany, N.Y., and the experimental protocol approved by the VAIACUC. Mice were acclimated for 5 d prior to the start of experiments. […]
Polymer Conjugated DAT, TAT or MAT derivatives were tested at three different doses (10, 30, 100 μg/10 μl). […] At day 14-post plug implant, all animals were sacrificed and hemoglobin contents were quantitated using spectrophotometry. […]
Matrigel plug hemoglobin (Hb) content was indexed as a measure of new vascularity formation. […] A volume of 50 μl of supernatant were mixed with 50 μl of Drabkin's reagent and allowed to sit at room temperature for 15-30 min, after which 100 μl was placed in a 96-well plate and absorbance was measured at 540 nm with a Microplate Manager ELISA reader. The Hb concentration was expressed as mg/ml based on comparison with a standard curve.

[5] = tested on: orthotropic brain GBM tumor and subcutaneous GBM xenografts; test: Kinetics of Cy5 labeled conjugates in GBM tumors (IVIS imaging); assay type: in vivo
Protocol: Each group of animals was provided with orthotropic implants (GBM) and after tumor growth in the brain and subcutaneously implanted GBM Xenografts. Polymer conjugated MAT 210, TAT 230 or DAT 220 derivatives were injected subcutaneously with P-bi-TAT-Cy5 and other polymer conjugated TAT 230 or DAT 220 derivative-Cy5. IVIS imaging was performed immediately after injection and at 30 min, 1 h, 2 h, 3 h, 4 h to detect the fluorescence intensity at the orthotropic brain xenograft tumor site (brain) and subcutaneous xenografts tumors. […] The graphs depicted in FIGS. 34 and 35 describe the kinetics of the thyrointegrin antagonist derivatives' uptake into GBM tumors in the brain or subcutaneously implanted tumors. FIGS. 34-35 describe the effects of the polymer conjugated thyrointegrin antagonist derivatives containing MAT 210, DAT 220 and TAT 230 over time including bifunctional embodiments thereof.

In the case of “O,O′-Bis({4-[3,5-diiodo-4-(1-methylen-1,2,3-triazol-4-ylmethoxy)phenoxy]-3,5-diiodophenyl}acetic acid) polyethylene glycol [P-bi-TAT]”, the Body weights ([1]; 1-330 mg/kg daily s.c. for 14 days) is reported as “unaffected”, the “Liver, heart or kidney toxicity (ALT, AST, cTnI, creatinine in plasma)” value ([1]; male and female mice, 2 weeks, up to 100-fold the efficacious dose (3-10 mg/kg)) is reported as “no evidence of liver, heart or kidney toxicity” and the “Suppression of tumor and cell viability in brain and subcutaneous GBM tumor” value (U87-luc cells) is reported as “dose dependent suppression of the tumor”. The “Decrease in tumor size, combination with radiation” value ([2]; 3 mg P-bi-TAT/kg plus one Gy radiation) was 71%, the “Tumor weight reduction after 20 days” value ([2]; 3 mg/kg daily) was 55% and the “Decrease in cell viability, combination with radiation” value ([2]; 3 mg/kg plus 1 Gy radiation) was 54%. The “Increase of necrosis, combination with radiation” value ([2]; 3 mg/kg plus 1 Gy radiation) was 65%, the “Increase in % cell necrosis in tissue sections” value ([2]; 3 mg/kg) was “not significant” and the “Percent reduction in tumor cell viability” value ([2]; 3 mg/kg) was “insignificant”. The “Decrease in tumor size, combination with radiation” value ([2]; 10 mg P-bi-TAT/kg plus one Gy radiation) was 77%, the “Tumor weight reduction after 20 days” value ([2]; 10 mg/kg daily) was 65% and the “Decrease in cell viability, combination with radiation” value ([2]; 10 mg/kg plus 1 Gy radiation) was 68%. For the same substance, the “Increase of necrosis, combination with radiation” value ([2]; 10 mg/kg plus 1 Gy radiation) was 70%, the “Increase in % cell necrosis in tissue sections” value ([2]; 10 mg/kg) was “more than a doubling” and the “Percent reduction in tumor cell viability” value ([2]; 10 mg/kg) was 43%. The “Reduction in tumor cell viability (histological score)” value ([3]; 3 mg P-bi-TAT/kg s.c. daily for 21 days) was 62%, the “Reductions in cell viability achieved by day 21” value ([3]; 3 mg/kg and 10 mg/kg dosages, histologic evaluation) was 60-70% and the “Reduction in tumor cell viability (histological score)” value ([3]; 10 mg P-bi-TAT/kg s.c. daily for 21 days) was 72%. For the same substance, the “Anti-angiogenic effect (Matrigel plug hemoglobin levels)” value [4] was “dose dependent response on angiogenesis”, the “Cy5 signal in the brain over time” value ([5]; subcutaneous injection, IVIS up to 4 hours) was “seen in the brain at 30 minutes and sustained for the 4 hours of monitoring” and the “Cy5 signal in brain GBM tumor versus subcutaneous GBM tumor xenografts” value ([5]; tumors removed after 4 hours) was “comparable”.
